Measured values: patent publication US10000791B2, “Measurement method for human pancreatic lipase activity” (ASAHI KASEI PHARMA CORPORATION, priority 2013, dated 2018)

System: human pancreatic lipase
Test: lipase activity measured in control, normal and heparin-administered samples with each reagent (1,2-dioleoyl glycerol, UV method; Liquitech Lipase Color II for verification)
Type: biochemical
Design: lipase activity relative to (1) comparative example NaDCA (Table 1): concentration or dose not given beside the values
Settings: for lipase activity (Table 1): NaDCA pH 8.15, other bile salts pH 7.0; for lipase activity relative to (1) comparative example NaDCA (Table 1): pH 7.0
Procedure: A mixture of the substrate stock solution and the R-1 in a proportion of 1:2 was used as a first reagent. The R-2 was directly used as a second reagent. As a sample, pooled serum or a control sample (a control containing a pancreatic lipase) was used. A proportion in amount among the sample, the first reagent and the second reagent was set as sample:first reagent:second reagent of 0.01 ml:0.18 ml:0.06 ml. The sample was added to the first reagent, the resultant mixture was heated at 37° C. for 5 minutes, the second reagent was added thereto, and a change rate of an absorbance at 340 nm based on reduced NADP was obtained at 37° C. from 3 minutes after the addition of the second reagent to 4 minutes after the addition, and then, the lipase activity was calculated by using a molecular extinction coefficient of 6300 L/mol·cm of the reduced NADP. Besides, as a sample blank, saline was used instead of a sample, an absorbance was measured by using the reagent for sample blank obtained by removing MGLPII from the second reagent, and a difference between the thus measured two values was defined as an enzyme activity value. For the measurement, Hitachi automatic analyzer Model H7170 or H7080 was used.
Similarly to Example 1, a mixture of the substrate stock solution and the R-1 in a proportion of 1:2 was used as a first reagent. Except for this, the measurement was performed in the same manner as in Example 1.
A commercially available reagent for a resorufin colorimetric method, “Liquitech Lipase Color II” manufactured by Roche Diagnostics using 1,2-O-dilauryl-rac-glycerol-3-glutaric acid-(6-methylresorufin)ester (DGGR), which is regarded not to be influenced by a non-pancreatic lipase, such as a lipoprotein lipase or a hepatic lipase, appearing in blood due to administration of heparin, was used for verifying the effect of the present example. “Liquitech Lipase Color II” was used in accordance with the package insert, and a special calibrator was used for calculating the enzyme activity. […] The concentration of each bile acid used in the present example was set to be the same as that in the comparative example.
As samples, a control, non-heparin-administered samples (normal samples), and heparin-administered samples were used.
The compositions of the reagents were the same as those of Example 2. As a comparative example, NaDCA (in a concentration of 40 mmol/L in the R-1) was used as the bile acid, and the reaction solution was adjusted to pH 8.15 (by the Bicine buffer) for measuring a heparin-administered sample.
It is noted that CRM-001b containing a human pancreatic recombinant lipase dissolved not in distilled water but in a pooled serum was used as the calibrator to calculate the lipase activity.
As a bile acid of the present example and a reference example, NaTDCA was selected, and the pH dependence with the pH of a reaction solution changed in a range of 6.2 to 7.6 was examined. It is noted that a case of pH 7.6 was used as the reference example. An MES buffer was used for adjusting pH to 6.2 and 6.4, and the BES buffer was used for adjusting the other pHs. As samples, (six) control samples (controls each containing a pancreatic lipase) and (nine) heparin-administered samples were used. As a comparative example, NaDCA (in a concentration of 40 mmol/L in the R-1) was used as the bile acid, and a reaction solution having pH 8.15 (the Bicine buffer) was used. Besides, “Liquitech Lipase Color II” manufactured by Roche Diagnostics was used for verifying the effect of the present example.

SMILES: C[C@H](CCC(=O)NCCS(=O)(=O)[O-])[C@H]1CC[C@H]2[C@@H]3CC[C@@H]4C[C@H](O)CC[C@]4(C)[C@H]3C[C@H](O)[C@]12C.[Na+] [NaTDCA, sodium taurodeoxycholate]
- lipase activity (Table 1) (Normal sample 1): 43.4 U/L
- lipase activity relative to (1) comparative example NaDCA (Table 1) (Normal sample 1): 111.1%
- lipase activity (Table 1) (Normal sample 2): 96.4 U/L
- lipase activity relative to (1) comparative example NaDCA (Table 1) (Normal sample 2): 101.4%
- lipase activity (Table 1) (Normal sample 3): 50.7 U/L
- lipase activity relative to (1) comparative example NaDCA (Table 1) (Normal sample 3): 108.7%
- lipase activity (Table 1) (Normal sample 4): 44.5 U/L
- lipase activity relative to (1) comparative example NaDCA (Table 1) (Normal sample 4): 102.3%
- lipase activity (Table 1) (Normal sample 5): 31.7 U/L
- lipase activity relative to (1) comparative example NaDCA (Table 1) (Normal sample 5): 77.8%
- lipase activity (Table 1) (sample Heparin 1): 30.1 U/L
- lipase activity relative to (1) comparative example NaDCA (Table 1) (sample Heparin 1): 39.2%
- lipase activity (Table 1) (sample Heparin 2): 44.2 U/L
- lipase activity relative to (1) comparative example NaDCA (Table 1) (sample Heparin 2): 50.9%
- lipase activity (Table 1) (sample Heparin 3): 37.9 U/L
- lipase activity relative to (1) comparative example NaDCA (Table 1) (sample Heparin 3): 33.6%
- lipase activity (Table 1) (sample Heparin 4): 28.9 U/L
- lipase activity relative to (1) comparative example NaDCA (Table 1) (sample Heparin 4): 28.5%
- lipase activity (Table 1) (sample Heparin 5): 30.1 U/L
- lipase activity relative to (1) comparative example NaDCA (Table 1) (sample Heparin 5): 44.0%
- lipase activity (Table 1) (sample Heparin 6): 30.1 U/L
- lipase activity relative to (1) comparative example NaDCA (Table 1) (sample Heparin 6): 43.4%
- lipase activity (Table 1) (sample Heparin 7): 50.4 U/L
- lipase activity relative to (1) comparative example NaDCA (Table 1) (sample Heparin 7): 36.4%
- lipase activity (Table 1) (sample Heparin 8): 54.7 U/L
- lipase activity relative to (1) comparative example NaDCA (Table 1) (sample Heparin 8): 43.4%
- lipase activity (Table 1) (sample Heparin 9): 82.4 U/L
- lipase activity relative to (1) comparative example NaDCA (Table 1) (sample Heparin 9): 48.8%
- lipase activity (Table 3) (sample Heparin 21, pH 6.2): 35.9 U/L
- lipase activity (Table 3) (sample Heparin 21, pH 6.4): 37.9 U/L
- lipase activity (Table 3) (sample Heparin 21, pH 6.6): 40.9 U/L
- lipase activity (Table 3) (sample Heparin 21, pH 6.9): 48.6 U/L
- lipase activity (Table 3) (sample Heparin 21, pH 7.2): 47.6 U/L
- lipase activity (Table 3) (sample Heparin 21, pH 7.4): 44.5 U/L
- lipase activity (Table 3) (sample Heparin 21, pH 7.6): 34.7 U/L
- lipase activity (Table 3) (sample Heparin 22, pH 6.2): 39.7 U/L
- lipase activity (Table 3) (sample Heparin 22, pH 6.4): 41.7 U/L
- lipase activity (Table 3) (sample Heparin 22, pH 6.6): 45.5 U/L
- lipase activity (Table 3) (sample Heparin 22, pH 6.9): 53.6 U/L
- lipase activity (Table 3) (sample Heparin 22, pH 7.2): 52.6 U/L
- lipase activity (Table 3) (sample Heparin 22, pH 7.4): 49.2 U/L
- lipase activity (Table 3) (sample Heparin 22, pH 7.6): 38.3 U/L
- lipase activity (Table 3) (sample Heparin 23, pH 6.2): 61.0 U/L
- lipase activity (Table 3) (sample Heparin 23, pH 6.4): 63.0 U/L
- lipase activity (Table 3) (sample Heparin 23, pH 6.6): 71.4 U/L
- lipase activity (Table 3) (sample Heparin 23, pH 6.9): 81.7 U/L
- lipase activity (Table 3) (sample Heparin 23, pH 7.2): 80.5 U/L
- lipase activity (Table 3) (sample Heparin 23, pH 7.4): 75.8 U/L
- lipase activity (Table 3) (sample Heparin 23, pH 7.6): 58.6 U/L
- lipase activity (Table 3) (sample Heparin 24, pH 6.2): 44.9 U/L
- lipase activity (Table 3) (sample Heparin 24, pH 6.4): 46.9 U/L
- lipase activity (Table 3) (sample Heparin 24, pH 6.6): 51.8 U/L
- lipase activity (Table 3) (sample Heparin 24, pH 6.9): 60.4 U/L
- lipase activity (Table 3) (sample Heparin 24, pH 7.2): 59.4 U/L
- lipase activity (Table 3) (sample Heparin 24, pH 7.4): 55.7 U/L
- lipase activity (Table 3) (sample Heparin 24, pH 7.6): 43.2 U/L
- lipase activity (Table 3) (sample Heparin 25, pH 6.2): 38.0 U/L
- lipase activity (Table 3) (sample Heparin 25, pH 6.4): 40.0 U/L
- lipase activity (Table 3) (sample Heparin 25, pH 6.6): 43.5 U/L
- lipase activity (Table 3) (sample Heparin 25, pH 6.9): 51.4 U/L
- lipase activity (Table 3) (sample Heparin 25, pH 7.2): 50.4 U/L
- lipase activity (Table 3) (sample Heparin 25, pH 7.4): 47.1 U/L
- lipase activity (Table 3) (sample Heparin 25, pH 7.6): 36.7 U/L
- lipase activity (Table 1) (sample PRECINORM): 52.1 U/L
- lipase activity (Table 3) (sample PRECINORM, pH 6.2): 46.8 U/L
- lipase activity (Table 3) (sample PRECINORM, pH 6.4): 50.0 U/L
- lipase activity (Table 3) (sample PRECINORM, pH 6.6): 52.6 U/L
- lipase activity (Table 3) (sample PRECINORM, pH 6.9): 67.1 U/L
- lipase activity relative to (1) comparative example NaDCA (Table 1) (sample PRECINORM): 102.1%
- lipase activity (Table 3) (sample PRECINORM, pH 7.2): 59.5 U/L
- lipase activity (Table 3) (sample PRECINORM, pH 7.4): 57.1 U/L
- lipase activity (Table 3) (sample PRECINORM, pH 7.6): 52.0 U/L
- lipase activity (Table 1) (sample PRECIPATH): 134.6 U/L
- lipase activity (Table 3) (sample PRECIPATH, pH 6.2): 110.7 U/L
- lipase activity (Table 3) (sample PRECIPATH, pH 6.4): 109.5 U/L
- lipase activity (Table 3) (sample PRECIPATH, pH 6.6): 140.3 U/L
- lipase activity (Table 3) (sample PRECIPATH, pH 6.9): 157.3 U/L
- lipase activity relative to (1) comparative example NaDCA (Table 1) (sample PRECIPATH): 105.2%
- lipase activity (Table 3) (sample PRECIPATH, pH 7.2): 159.2 U/L
- lipase activity (Table 3) (sample PRECIPATH, pH 7.4): 152.7 U/L
- lipase activity (Table 3) (sample PRECIPATH, pH 7.6): 110.7 U/L
- lipase activity (Table 3) (sample Pool 1, pH 6.2): 42.1 U/L
- lipase activity (Table 3) (sample Pool 1, pH 6.4): 44.6 U/L
- lipase activity (Table 3) (sample Pool 1, pH 6.6): 45.2 U/L
- lipase activity (Table 3) (sample Pool 1, pH 6.9): 53.0 U/L
- lipase activity (Table 3) (sample Pool 1, pH 7.2): 52.4 U/L
- lipase activity (Table 3) (sample Pool 1, pH 7.4): 45.4 U/L
- lipase activity (Table 3) (sample Pool 1, pH 7.6): 39.1 U/L
- lipase activity (Table 3) (sample Pool 2, pH 6.2): 22.8 U/L
- lipase activity (Table 3) (sample Pool 2, pH 6.4): 24.8 U/L
- lipase activity (Table 3) (sample Pool 2, pH 6.6): 23.6 U/L
- lipase activity (Table 3) (sample Pool 2, pH 6.9): 28.0 U/L
- lipase activity (Table 3) (sample Pool 2, pH 7.2): 28.2 U/L
- lipase activity (Table 3) (sample Pool 2, pH 7.4): 27.0 U/L
- lipase activity (Table 3) (sample Pool 2, pH 7.6): 18.3 U/L
- lipase activity (Table 3) (sample Seraclear, pH 6.2): 23.7 U/L
- lipase activity (Table 3) (sample Seraclear, pH 6.4): 25.4 U/L
- lipase activity (Table 3) (sample Seraclear, pH 6.6): 28.6 U/L
- lipase activity (Table 3) (sample Seraclear, pH 6.9): 31.7 U/L
- lipase activity (Table 3) (sample Seraclear, pH 7.2): 33.8 U/L
- lipase activity (Table 3) (sample Seraclear, pH 7.4): 31.4 U/L
- lipase activity (Table 3) (sample Seraclear, pH 7.6): 20.2 U/L
